System: PDC 899932-113-R3-J6 complex spheroid viability
Assay: Anticancer human tumor 899932-113-R3-J6-PDC patient-derived melanoma cell line growth inhibition [RAS]
Conditions: for IC50: curve of first compound; for viability, T/C: stronger effect = lower value
Method in brief: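 Tumour cells grown as complex spheroids with HUVEC endothelial cells and mesenchymal stem cells, treated with RAS pathway inhibitor combinations. Each agent spans half-log steps from near clinical Cmax, or 10 microM where Cmax is unknown.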
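Wherever viability, T/C is given: spheroids exposed to agents for seven days before readout; 100% = DMSO vehicle control wells.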

Compound: C=CC(=O)N1CCN(c2nc(OCC3CCCN3C)nc3c(F)c(-c4nc(N)cc(C)c4C(F)(F)F)c(Cl)cc23)C(C)C1 (centres undefined) + CCn1c(-c2cc(N3CCN(C)CC3)cnc2C(C)OC)c2c3cc(ccc31)-c1csc(n1)CC(NC(=O)C1CC1C)C(=O)N1CCCC(N1)C(=O)OCC(C)(C)C2
- IC50 (second compound 0.000949 µM): > 1000 nM
- IC50 (second compound 0.003 µM): < 3.16 nM
- IC50 (second compound 0.00949 µM): < 3.16 nM
- IC50 (second compound 0.03 µM): < 3.16 nM
- IC50 (second compound 0.0949 µM): < 3.16 nM
- IC50 (second compound 0.3 µM): < 3.16 nM
- viability, T/C (second compound 0.000949 µM, first compound 0.00316 µM): 73.2%
- viability, T/C (second compound 0.000949 µM, first compound 0.01 µM): 71.3%
- viability, T/C (second compound 0.000949 µM, first compound 0.0316 µM): 75.9%
- viability, T/C (second compound 0.000949 µM, first compound 0.1 µM): 76.8%
- viability, T/C (second compound 0.000949 µM, first compound 0.316 µM): 74%
- viability, T/C (second compound 0.000949 µM, first compound 1 µM): 78.2%
- viability, T/C (second compound 0.003 µM, first compound 0.00316 µM): 39.8%
- viability, T/C (second compound 0.003 µM, first compound 0.01 µM): 35.6%
- viability, T/C (second compound 0.003 µM, first compound 0.0316 µM): 36.5%
- viability, T/C (second compound 0.003 µM, first compound 0.1 µM): 37.7%
- viability, T/C (second compound 0.003 µM, first compound 0.316 µM): 42.3%
- viability, T/C (second compound 0.003 µM, first compound 1 µM): 34.5%
- viability, T/C (second compound 0.00949 µM, first compound 0.00316 µM): 3.88%
- viability, T/C (second compound 0.00949 µM, first compound 0.01 µM): 4.28%
- viability, T/C (second compound 0.00949 µM, first compound 0.0316 µM): 6.59%
- viability, T/C (second compound 0.00949 µM, first compound 0.1 µM): 5.83%
- viability, T/C (second compound 0.00949 µM, first compound 0.316 µM): 4.76%
- viability, T/C (second compound 0.00949 µM, first compound 1 µM): 5.5%
- viability, T/C (second compound 0.03 µM, first compound 0.00316 µM): 2.75%
- viability, T/C (second compound 0.03 µM, first compound 0.01 µM): 2.91%
- viability, T/C (second compound 0.03 µM, first compound 0.0316 µM): 4.47%
- viability, T/C (second compound 0.03 µM, first compound 0.1 µM): 2.82%
- viability, T/C (second compound 0.03 µM, first compound 0.316 µM): 2.96%
- viability, T/C (second compound 0.03 µM, first compound 1 µM): 2.4%
- viability, T/C (second compound 0.0949 µM, first compound 0.00316 µM): 2.13%
- viability, T/C (second compound 0.0949 µM, first compound 0.01 µM): 2.76%
- viability, T/C (second compound 0.0949 µM, first compound 0.0316 µM): 2.86%
- viability, T/C (second compound 0.0949 µM, first compound 0.1 µM): 1.94%
- viability, T/C (second compound 0.0949 µM, first compound 0.316 µM): 2.58%
- viability, T/C (second compound 0.0949 µM, first compound 1 µM): 2.69%
- viability, T/C (second compound 0.3 µM, first compound 0.00316 µM): 2.09%
- viability, T/C (second compound 0.3 µM, first compound 0.01 µM): 2.1%
- viability, T/C (second compound 0.3 µM, first compound 0.0316 µM): 3.32%
- viability, T/C (second compound 0.3 µM, first compound 0.1 µM): 3.11%
- viability, T/C (second compound 0.3 µM, first compound 0.316 µM): 2.88%
- viability, T/C (second compound 0.3 µM, first compound 1 µM): 2.36%

Compound: CC1(C)CCC(Nc2ncc(C(F)(F)F)c(-c3c[nH]c4c(P(C)(C)=O)c(C#N)ccc34)n2)CN1 (centres undefined) + CCn1c(-c2cc(N3CCN(C)CC3)cnc2C(C)OC)c2c3cc(ccc31)-c1csc(n1)CC(NC(=O)C1CC1C)C(=O)N1CCCC(N1)C(=O)OCC(C)(C)C2
- IC50 (second compound 0.000949 µM): 3.34 nM
- IC50 (second compound 0.003 µM): < 0.949 nM
- IC50 (second compound 0.00949 µM): < 0.949 nM
- IC50 (second compound 0.03 µM): < 0.949 nM
- IC50 (second compound 0.0949 µM): < 0.949 nM
- IC50 (second compound 0.3 µM): < 0.949 nM
- viability, T/C (second compound 0.000949 µM, first compound 0.000949 µM): 64.6%
- viability, T/C (second compound 0.000949 µM, first compound 0.003 µM): 51.2%
- viability, T/C (second compound 0.000949 µM, first compound 0.00949 µM): 37.5%
- viability, T/C (second compound 0.000949 µM, first compound 0.03 µM): 26.1%
- viability, T/C (second compound 0.000949 µM, first compound 0.0949 µM): 15.4%
- viability, T/C (second compound 0.000949 µM, first compound 0.3 µM): 9.12%
- viability, T/C (second compound 0.003 µM, first compound 0.000949 µM): 35%
- viability, T/C (second compound 0.003 µM, first compound 0.003 µM): 27.6%
- viability, T/C (second compound 0.003 µM, first compound 0.00949 µM): 21.9%
- viability, T/C (second compound 0.003 µM, first compound 0.03 µM): 14.6%
- viability, T/C (second compound 0.003 µM, first compound 0.0949 µM): 13.2%
- viability, T/C (second compound 0.003 µM, first compound 0.3 µM): 7.92%
- viability, T/C (second compound 0.00949 µM, first compound 0.000949 µM): 3.56%
- viability, T/C (second compound 0.00949 µM, first compound 0.003 µM): 4.08%
- viability, T/C (second compound 0.00949 µM, first compound 0.00949 µM): 4.01%
- viability, T/C (second compound 0.00949 µM, first compound 0.03 µM): 4.17%
- viability, T/C (second compound 0.00949 µM, first compound 0.0949 µM): 5.08%
- viability, T/C (second compound 0.00949 µM, first compound 0.3 µM): 5.25%
- viability, T/C (second compound 0.03 µM, first compound 0.000949 µM): 2.41%
- viability, T/C (second compound 0.03 µM, first compound 0.003 µM): 2.78%
- viability, T/C (second compound 0.03 µM, first compound 0.00949 µM): 2.34%
- viability, T/C (second compound 0.03 µM, first compound 0.03 µM): 2.28%
- viability, T/C (second compound 0.03 µM, first compound 0.0949 µM): 2.45%
- viability, T/C (second compound 0.03 µM, first compound 0.3 µM): 2.64%
- viability, T/C (second compound 0.0949 µM, first compound 0.000949 µM): 2.17%
- viability, T/C (second compound 0.0949 µM, first compound 0.003 µM): 2.21%
- viability, T/C (second compound 0.0949 µM, first compound 0.00949 µM): 2.67%
- viability, T/C (second compound 0.0949 µM, first compound 0.03 µM): 2.13%
- viability, T/C (second compound 0.0949 µM, first compound 0.0949 µM): 1.61%
- viability, T/C (second compound 0.0949 µM, first compound 0.3 µM): 2.1%
- viability, T/C (second compound 0.3 µM, first compound 0.000949 µM): 2.15%
- viability, T/C (second compound 0.3 µM, first compound 0.003 µM): 1.93%
- viability, T/C (second compound 0.3 µM, first compound 0.00949 µM): 1.68%
- viability, T/C (second compound 0.3 µM, first compound 0.03 µM): 1.68%
- viability, T/C (second compound 0.3 µM, first compound 0.0949 µM): 1.86%
- viability, T/C (second compound 0.3 µM, first compound 0.3 µM): 1.52%
